Reference: patent US8871786B2, “Azaindazole amide compounds as CCR1 receptor antagonists” (Boehringer Ingelheim International GmbH, priority 2010, dated 2014)

biological target: T1, CCR1 (Homo sapiens, UniProt P32246); test: Calcium flux assay in CCR1 transfected cells (block of CCR1/MIP-1α interaction); assay type: cell-based; settings: cells stably expressing recombinant CCR1 and G-alpha-16; MIP-1 alpha at EC80; mean
T1 sequence (P32246 1-355): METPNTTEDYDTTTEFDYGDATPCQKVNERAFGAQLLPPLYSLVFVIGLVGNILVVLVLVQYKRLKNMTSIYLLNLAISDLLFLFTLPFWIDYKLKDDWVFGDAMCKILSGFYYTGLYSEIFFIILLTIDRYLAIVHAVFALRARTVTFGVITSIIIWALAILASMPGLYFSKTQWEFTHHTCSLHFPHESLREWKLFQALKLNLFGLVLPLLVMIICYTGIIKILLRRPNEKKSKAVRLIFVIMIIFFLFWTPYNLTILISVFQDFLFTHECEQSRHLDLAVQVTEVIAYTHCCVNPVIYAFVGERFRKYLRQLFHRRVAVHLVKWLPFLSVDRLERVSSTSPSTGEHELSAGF
Method: Compounds are assessed for the ability to block the interaction of CCR1 and MIP-1α in a functional cellular assay measuring calcium flux in CCR1 transfected cells.
Non-adherent cells purchased from Chemicon Corporation (HTS005C), stably expressing recombinant CCR1 and G-alpha-16 are grown in RPMI 1640 medium (Mediatech 10-080-CM) supplemented with 10% FBS, 0.4 mg/mL Geneticin and penicillin/streptomycin. On the day of the assay, the cells are loaded with Calcium 4 dye (Molecular Devices R7448) with Probenecid (Invitrogen P346400) at 8E5 cells/mL for 1 hour at room temperature. After 1 hour, they are seeded in a 384-well tissue culture-treated plate at a density of 20,000 cells/well. Appropriately diluted test compound is added to the well to achieve a top concentration of 3,000 nM (diluted 4-fold with 10 doses total). The final concentration of DMSO is 1%. The buffer is HBSS (Invitrogen 14025) with 20 mM HEPES at pH 7.4. The cells incubate 30 minutes at 37 C and then 30 minutes at room temperature. The plates are transferred to the HAMAMATSU FDSS6000 where MIP-1 alpha in 1% BSA is added at the EC80 final concentration. All plates must be read within 4 hours of the start of dye-loading. Wells+/−MIP-1 alpha containing diluted DMSO instead of compound serve as the controls. Data are analyzed using Activity Base software.

SMILES | IC50 [nM]
Cc1cc(C)c(NC(=O)c2cncc3c2cnn3-c2ccc(F)cc2)c(C)c1 | 19
COC(=O)c1ccc(NC(=O)c2cncc3c2cnn3-c2ccc(F)cc2)c(C)c1 | 24
Cc1cccc(Cl)c1NC(=O)c1cncc2c1cnn2-c1ccc(F)cc1 | 36
Cn1nccc1-c1cccc(NC(=O)c2cncc3c2cnn3-c2ccc(F)cc2)c1 | 73
Cc1cc(-c2nnco2)ccc1NC(=O)c1cncc2c1cnn2-c1ccc(F)cc1 | 30
Cc1ccnc(C)c1NC(=O)c1cncc2c1cnn2-c1ccc(F)cc1 | 21
Cc1cc(C)c(S(C)(=O)=O)cc1NC(=O)c1cncc2c1cnn2-c1ccc(F)cc1 | 2.1
Cc1onc(-c2ccccc2)c1NC(=O)c1cncc2c1cnn2-c1ccc(F)cc1 | 14
Cc1ccc(NC(=O)c2cncc3c2cnn3-c2ccc(F)cc2)c(Cl)n1 | 82
CNC(=O)c1ccc(NC(=O)c2cncc3c2cnn3-c2ccc(F)cc2)c(C)c1 | 93
Cc1nc(Cl)ccc1NC(=O)c1cncc2c1cnn2-c1ccc(F)cc1 | 8.8
Cc1noc(C)c1NC(=O)c1cncc2c1cnn2-c1ccc(F)cc1 | 6.9
Cn1ncc(-c2ccccc2)c1NC(=O)c1cncc2c1cnn2-c1ccc(F)cc1 | 84
Cc1cc(C(=O)N(C)C)ccc1NC(=O)c1cncc2c1cnn2-c1ccc(F)cc1 | 66
Cc1cc(Cl)cc(C)c1NC(=O)c1cncc2c1cnn2-c1ccc(F)cc1 | 2.8
